Data published in PubChem BioAssay (NCI).
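All cell lines were grown in 96-well plates and treated with compound for 48 hours. The concentration for full growth arrest is given as TGI.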

Key:
Assay in all cases: NCI tumour cell line growth inhibition, 48 h
[1] = system: CCRF-CEM leukemia
[2] = system: HCT-15 colon
[3] = system: TK-10 renal
[4] = system: SN12C renal
[5] = system: UACC-257 melanoma
[6] = system: OVCAR-5 ovarian
[7] = system: ACHN renal
[8] = system: U251 CNS
[9] = system: NCI-H460 lung
[10] = system: UO-31 renal
[11] = system: HCC-2998 colon
[12] = system: HOP-92 NSCLC
[13] = system: NCI-H23 lung
[14] = system: SW-620 colon
[15] = system: HT29 colon
[16] = system: RPMI-8226 leukemia
[17] = system: SF-268 CNS
[18] = system: MDA-N
[19] = system: LOX IMVI melanoma
[20] = system: OVCAR-8 ovarian
[21] = system: A498 renal
[22] = system: SNB-19 CNS
[23] = system: NCI-H226 lung
[24] = system: T-47D breast
[25] = system: SK-OV-3 ovarian
[26] = system: HL-60(TB) leukemia
[27] = system: CAKI-1 renal
[28] = system: SR leukemia
[29] = system: MALME-3M melanoma
[30] = system: MDA-MB-231 breast
[31] = system: UACC-62 melanoma
[32] = system: NCI-H522 lung
[33] = system: SK-MEL-2 melanoma
[34] = system: OVCAR-3 ovarian
[35] = system: K-562 leukemia
[36] = system: SK-MEL-28 melanoma
[37] = system: HS 578T breast
[38] = system: SF-295 CNS
[39] = system: KM12 colon
[40] = system: SNB-75 CNS
[41] = system: MOLT-4 leukemia
[42] = system: COLO 205 colon
[43] = system: M14 melanoma
[44] = system: IGROV1 ovarian
[45] = system: DU-145 prostate
[46] = system: HCT-116 colon
[47] = system: HOP-62 NSCLC
[48] = system: PC-3 prostate
[49] = system: MDA-MB-435
[50] = system: SK-MEL-5 melanoma
[51] = system: EKVX NSCLC
[52] = system: MCF7 breast
[53] = system: BT-549 breast
[54] = system: NCI/ADR-RES ovarian
[55] = system: OVCAR-4 ovarian
[56] = system: RXF 393 renal
[57] = system: A549 NSCLC
[58] = system: SF-539 CNS
[59] = system: 786-0 renal

Measured: TGI

CC(C)(O)/C1=C/C=C/CCCCCCCCCC1
> 100 µM: [1] | [2] | [3] | [4] | [5] | [6] | [7] | [8] | [9] | [10] | [11] | [12] | [13] | [14] | [15] | [16] | [17] | [18] | [19] | [20] | [21] | [22] | [23] | [24] | [25] | [27] | [28] | [29] | [30] | [31] | [32] | [33] | [34] | [35] | [36] | [38] | [39] | [41] | [42] | [43] | [44] | [45] | [46] | [47] | [48] | [49] | [51] | [52] | [53] | [54]
2.85 µM: [40]
1.73 µM: [50]
98.6 µM: [26]
7.78 µM: [37]

CC(C)C1CNC(=O)C2(C=NC(C(C)C)CNC(=O)C3(C=N1)CCCO3)CCCO2 (configuration not stated)
> 10 µM: [1] | [2] | [3] | [4] | [5] | [7] | [8] | [11] | [12] | [13] | [14] | [15] | [16] | [17] | [18] | [20] | [21] | [55] | [22] | [24] | [56] | [25] | [26] | [27] | [28] | [29] | [30] | [31] | [32] | [57] | [58] | [34] | [35] | [36] | [37] | [38] | [39] | [40] | [41] | [42] | [43] | [44] | [45] | [46] | [47] | [48] | [49] | [50] | [51] | [52] | [53] | [59] | [54]
